These results are taken from patent publication US5110976A, “Insecticidal composition comprising more than one active ingredient” (priority 1985, dated 1992).

SMILES strings stand for the structures.

One data set deals with Musca domestica. Conditions: cited from earlier work.
For another data set, the system named is Phaedon cochleariae. Conditions: cited from earlier work.
The test system of data set [1] is Leptinotarsa decemlineata. Nature of the data set: Topical test on potato beetle (Table 6). Type of data set: in vivo, imagos. Conditions: 24 h. Here is the method: The active ingredients are dissolved in 2-ethoxyethanol and […] of the solutions are applied onto the abdominal sterna of potato beetle (Leptinotarsa decemlineata) imagos. The treatments are carried out by using two parallels and 10 insects for each dose. […]

Data set [2] deals with Hyphantria cunea. The experiment in a line: Topical test on fall webworm (Table 8). Type of data set: in vivo, L7-L8 larvae. Conditions: 24 h. The protocol: The active ingredients are dissolved in 2-ethoxyethanol and the solutions are applied in the form of 0.2 μl droplets onto the back of fall webworm (Hyphantria cunea) of L7 -L8 larvae stage. The treated worms are placed on strawberry leaves in Petri-dishes. The test is carried out by using 5 doses; 2 parallels and 10 insects for each dose.

Data set [3] deals with L. decemlineata. The experiment in a line: 5 EC formulation sprayed on glass plates (Table 9). Type of data set: in vivo, Colorado beetle (L. decemlineata), imagos. The note with it: 48 hours. The protocol:
(§1) From a 5 EC formulation according to Example 17 50-, 100-, 200-, 400-, 800- and 1600-fold diluted emulsions are prepared by diluting with water. 0.5 ml of the emulsions are sprayed onto glass plates whereupon after drying 10 Colorado beetles (L. decemlineata) imagos are placed on each glass plate and the insects are covered. The tests are carried out with 6 doses by carrying out 3 parallels for each dose. The killed insects are counted after 48 hours and the percental mortality rate is calculated.

Data set [4] deals with Acanthoscelides obtectus. Nature of the data set: 5 EC formulation, insecticidal effect on bean weevil (Table 10). Type of data set: in vivo, bean weevil (Acanthoscelides obtectus), imagos. The note with it: 24 hours. Here is the method:
as §1
The insecticidal effect is tested on been weevil (Acanthoscelides obtectus) imagos. The killed insects are counted after 24 hours and the percental mortality rate is calculated.

The subject of another data set is Colorado potato beetle. The experiment in a line: Topical test on Colorado potato beetle (Table 14). Type of data set: in vivo, Colorado potato beetle (Leptinotersa decemlineata), imago. The protocol: In Table 14 the activity on Colorado potato beetle is shown.
The test materials are dissolved in 2-ethoxyethanol (Cellosolve). One 0.3 μl drop of the solution is applied to the abdominal sterna of the imago. The treatment is carried out by using 2 parallels and 10 insects for each dose. […]

Data set [5] relates to Hyphantria cunea. The experiment in a line: Topical test on fall webworm (Table 18). In kind it is in vivo, fall wetworm (Hyphantria cunea), L7-L8 larvae. The protocol:
The active ingredients are dissolved in 2-ethoxy-ethanol and the solutions are applied in the form of 0.2 μl droplets onto the back of fall wetworm (Hyphantria cunea) of L7 -L8 larvae stage. The treated worms are placed on strawberry leaves in Petri-dishes. The test is carried out by using […], 2 parallels and 10 insects for each dose. The killed worms are counted after 24 hours and the percental mortality rate is calculated.

Another data set deals with Tetranychus urticae. The experiment in a line: Potter Tower spray on mite-infested leaves (Table 19). Type of data set: in vivo, mites (Tetranychus urticae). The note with it: mortality after 24 hours; 1440 min. Here is the method:
Leaves already infested with mites (Tetranychus urticae) were sprayed under Potter Tower. Mortality after 24 hours on the treated leaves was compared with the control.

In data set [6] the test system is L. decemlineata. The experiment in a line: 5 EC formulations sprayed on glass plates (Table 20). Type of data set: in vivo, imagos. Conditions: 5 EC formulation, 48 hours. Here is the method: (§2) The 5 EC formulations prepared according to Example 42 are diluted 50x, 100x, 200x, 400x, 800x and 1600x with water and 0.5 ml doses are sprayed onto glass plates. After drying 10 L. decemlineata imagos are placed on each glass plate and the insects are covered with Petri-dishes. The tests are carried out by using 6 doses and 3 parallels for each dose. The killed insects are counted after 48 hours.

Data set [7] deals with Acanthoscelides obtectus. The experiment in a line: 5 EC formulations sprayed on glass plates (Table 21). Type of data set: in vivo, bean weevil (Acanthoscelides obtectus), imagos. Conditions: 5 EC formulation, 24 hours, 1440 min. The protocol: as §2
Glass plates are sprayed with 5 EC formulations prepared according to Example 42 in an analogous manner to Example 52. After drying 10 bean weevil (Acanthoscelides obtectus) imagos are placed on each plate and the insects are covered with Petri-dishes. The killed insects are counted after 24 hours. The test is carried out with 6 doses by using 3 parallels for each dose.

Setting [8] is: mixture activity lower than the calculated value.

As to `CC1(C)[C@H](C=C(Cl)Cl)[C@H]1C(=O)O[C@@H](C#N)c1cccc(Oc2ccccc2)c1` [1RtransR], the “activity related to bioresmetrine (100)” value in the data set with Musca domestica (bioresmetrine = 100) is given as 81; in the data set on Phaedon cochleariae (bioresmetrine = 100), 110.

On to `CC1(C)C(C=C(Cl)Cl)C1C(=O)OC(C#N)c1cccc(Oc2ccccc2)c1` (centres unmarked) [cypermethrin], for which the mortality (usually the percentage killed) at 0.05 µg/insect in data set [1] (0.05 μg/insect) worked out at 0%. The mortality at 0.1 µg/insect in data set [1] (0.10 μg/insect) was determined as 20%. Also, in data set [1] (0.20 μg/insect), the mortality at 0.2 µg/insect came to 45%. Further, in data set [1] (0.40 μg/insect), the mortality at 0.4 µg/insect was found to be 75%. Besides, in the data set on Hyphantria cunea [2] (0.023 μg/larvae), the mortality at 0.023 µg/larva was found to be 0%. The mortality at 0.047 µg/larva in the data set on Hyphantria cunea [2] (0.047 μg/larvae) came out at 0%. This compound yielded a mortality at 0.094 µg/larva in the data set with Hyphantria cunea [2] (0.094 μg/larvae) of 25%. Further, in the data set on Hyphantria cunea [2] (0.188 μg/larvae), the mortality at 0.188 µg/larva turned out to be 50%. Further, the mortality at 0.375 µg/larva in the data set on Hyphantria cunea [2] (0.375 μg/larvae) is 75%. Also, the Mortality % in the data set with L. decemlineata [3] (dilution 50x) is reported as 83%; in the data set with L. decemlineata [3] (dilution 100x), 67%; in the data set with L. decemlineata [3] (dilution 200x) it was 50%; with L. decemlineata [3] (dilution 400x), 33%; with L. decemlineata [3] (dilution 800x) it was 17%; with L. decemlineata [3] (dilution 1600x), 0%. In addition, the Mortality % was 60% in the data set with Acanthoscelides obtectus [4] (dilution 50x); 43% with Acanthoscelides obtectus [4] (dilution 100x); 20% in the data set with Acanthoscelides obtectus [4] (dilution 200x); 10% in the data set on Acanthoscelides obtectus [4] (dilution 400x); 3% in the data set with Acanthoscelides obtectus [4] (dilution 800x); 0% in the data set on Acanthoscelides obtectus [4] (dilution 1600x). Further, the Mortality % with L. decemlineata [6] (dilution 50x, 2880 min) is 83%; in the data set with L. decemlineata [6] (dilution 100x, 2880 min), 67%; in the data set on L. decemlineata [6] (dilution 200x, 2880 min), 50%; with L. decemlineata [6] (dilution 400x, 2880 min), 33%; with L. decemlineata [6] (dilution 800x, 2880 min), 17%; with L. decemlineata [6] (dilution 1600x) it was 0%. Moreover, the Mortality % in the data set on Acanthoscelides obtectus [7] (dilution 50x) was 60%; in the data set on Acanthoscelides obtectus [7] (dilution 100x) it was 45%; with Acanthoscelides obtectus [7] (dilution 200x), 20%; with Acanthoscelides obtectus [7] (dilution 400x), 10%; in the data set with Acanthoscelides obtectus [7] (dilution 800x) it was 3%; in the data set on Acanthoscelides obtectus [7] (dilution 1600x) it was 0%. In addition, the “24 hours' mortality %” value in the data set on Colorado potato beetle (0.05 μg/beetle) came to 0%; with Colorado potato beetle (0.10 μg/beetle), 20%; with Colorado potato beetle (0.20 μg/beetle), 45%; in the data set with Colorado potato beetle (0.40 μg/beetle) it was 75%. The “24 hours' mortality” value in the data set on Hyphantria cunea [5] (0.023 (μg/disc), 1440 min) is recorded as 0%; in the data set on Hyphantria cunea [5] (0.047 (μg/disc), 1440 min), 10%; with Hyphantria cunea [5] (0.094 (μg/disc), 1440 min), 25%; with Hyphantria cunea [5] (0.188 (μg/disc), 1440 min) it was 50%; in the data set on Hyphantria cunea [5] (0.375 (μg/disc)) it was 75%. Besides, the “approx. LD50” value in the data set on Tetranychus urticae is approximately 0.120 ppm.

For `CC1(C)[C@H](C=C(Cl)Cl)[C@H]1C(=O)OC(C#N)c1cccc(Oc2ccccc2)c1` (mixture of isomers) [mixture of both tested isomers], the rate of antagonism in the data set with Musca domestica (setting [8]) is reported as 1.42; with Phaedon cochleariae (setting [8]) it was 1.46.
